From ChEMBL document CHEMBL3045064, “3D-QSAR of amino-substituted pyrido[3,2B]pyrazinones as PDE-5 inhibitors” (Med Chem Res, 2012)

Molecular target: cGMP-specific 3',5'-cyclic phosphodiesterase (Homo sapiens, UniProt O76074)
Assay: Inhibition of PDE5 (unknown origin)

SMILES | IC50
O=c1c(NCC2CCOCC2)nc2ccc(-c3ccncc3)nc2n1CC1CCCCC1 | 33.9 nM
COc1ccc(-c2ccc3nc(NCC4CCOCC4)c(=O)n(CC4CCCCC4)c3n2)cn1 | 2.29 nM
O=c1c(NCCN2CCOCC2)nc2ccc(-c3ccc(O)nc3)nc2n1CC1CCCCC1 | 537 nM
O=c1c(NCC2CCOCC2)nc2ccc(-c3cnc(O)nc3)nc2n1CC1CCCCC1 | 2.88 nM
COc1ccc(-c2ccc3nc(NCC(=O)N(C)C)c(=O)n(CC4CCCCC4)c3n2)cn1 | 14.5 nM

The remaining compounds from weak to strong by IC50, led by results:

IC50 | SMILES
36.3 nM | Cc1noc(C)c1-c1ccc2nc(NCCN3CCOCC3)c(=O)n(CC3CCCCC3)c2n1
26.9 nM | COc1ccc(-c2ccc3nc(NCCN4CCOCC4)c(=O)n(CC4CCCCC4)c3n2)cn1
